Data reported in ChEMBL document CHEMBL1121787, “Some 14 beta-substituted analogues of N-(cyclopropylmethyl)normorphine” (J Med Chem, 1981).
Where “and” joins values, the source holds several entries; their conditions need not be identical. Equal entries are not always repeated. Calls of active or inactive are those of the source. No cut-off for these calls is given here.

How the values were obtained:
[1] = tested on: Opioid receptors; mu & kappa; conditions: Cavia porcellus; Ileum
Mus musculus [2] = species: Mus musculus; assay: Opioid agonistic activity was measured in mouse vas deferens; format: functional
Mus musculus [3] = species: Mus musculus; assay: Opioid antagonist activity of compound was measured as inhibiting the binding of normorphine to mouse vas deferens; format: functional
Cavia porcellus = species: Cavia porcellus; assay: Opioid agonistic activity was measured in guinea pig ileum; format: functional
Mus musculus [4] = species: Mus musculus; assay: Opioid agonistic activity was measured in mouse vas deferens.; format: functional
Mus musculus [5] = species: Mus musculus

SMILES	Ke [1]	IC50 (Mus musculus [2])	Ke (Mus musculus [3])	IC50 (Cavia porcellus)	also measured
Oc1ccc2c3c1O[C@H]1[C@@H](O)C=C[C@@]4(S)C(C2)N(CC2CC2)CCC314 (some centres undefined)	1.69 nM	218 nM	22.9 nM and 20 nM	39.1 nM	
Oc1ccc2c3c1O[C@H]1[C@@H](O)C=C[C@@]4(O)C(C2)N(CC2CC2)CCC314 (some centres undefined)	2.35 nM		10.5 nM and 9 nM		
O=C1C=C[C@@]2(Br)C3Cc4ccc(O)c5c4C2(CCN3CC2CC2)[C@H]1O5 (some centres undefined)	1.36 nM		2.35 nM and 2.83 nM		
C=CCN1CC[C@]23c4c5ccc(O)c4O[C@H]2[C@@H](O)C=C[C@H]3[C@H]1C5 [NALORPHINE]	4.47 nM	535 nM	28.7 nM	24.3 nM	
O=C1C=C[C@@]2([N+](=O)[O-])C3Cc4ccc(O)c5c4C2(CCN3CC2CC2)[C@H]1O5 (some centres undefined)	4.44 nM	330 nM	14.9 nM	41.2 nM	IC50 (Mus musculus [4]): 580 nM
CN1CC[C@]23c4c5ccc(O)c4O[C@H]2[C@@H](O)C=C[C@H]3[C@H]1C5					Ke (Mus musculus [5]): inactive
O=C1C=C[C@@]2(Cl)C3Cc4ccc(O)c5c4C2(CCN3CC2CC2)[C@H]1O5 (some centres undefined)	3.92 nM		16.6 nM		
C=CCN1CC[C@]23c4c5ccc(O)c4O[C@H]2C(=O)CC[C@@]3(O)[C@H]1C5 [NALOXONE]			3.66 nM		
O=C1CC[C@@]2(O)[C@H]3Cc4ccc(O)c5c4[C@@]2(CCN3CC2CC2)[C@H]1O5 [NALTREXONE]					Inhibition (Cavia porcellus): 25%
Oc1ccc2c3c1O[C@H]1[C@@H](O)C=C[C@H]4C(C2)N(CC2CC2)CCC341 (some centres undefined)	0.8 nM			2.16 nM	
